“Also recorded” adds a separate entry of the source. Ends that are not written are not given here.
Legend:
[1] = target: DPP-IV (Homo sapiens, UniProt P27487); test: Degradation of GIP and Glu3-substituted GIP analogs by DPP-IV (HPLC); format: in vitro ADME
[2] = tested on: ob/ob mice; test: Daily (Pro3)GIP for 60 days in young ob/ob mice; format: in vivo, mouse
Description: (§1) Young obese diabetic (ob/ob) mice derived from the colony maintained at Aston University, UK (Bailey, C. J. et al., 1982, Int. J. Obes. 6:11-21) were used at 5-7 weeks of age. Normal lean control mice from the same colony were used in comparative experiments (See Example 6, below). Animals were age-matched, divided into groups and housed individually in an air-conditioned room at 22±2° C. with a 12 hours light:12 hours dark cycle (08:00-20:00 hours). Drinking water and a standard rodent maintenance diet (Trouw Nutrition, Cheshire, UK) were freely available. In a separate experiment, Swiss Tylers Original (TO) mice purchased from Harlan Ltd. (Bicester, UK) were used at 5-7 weeks of age. Animals were housed as for ob/ob mice and given drinking water ad libitum. Normal TO mice were allowed free access to fed high fat diet (45% fat, 20% protein, 35% carbohydrate, 26.15 MJ/kg), high carbohydrate diet (10% fat, 20% protein, 70% carbohydrate, 18.80 MJ/kg) (Special Diets Service, Witham, Essex, UK), cafeteria diet (corresponding to approximately 33% fat, 19% protein, 48% carbohydrate, 16.39 MJ/kg) or normal rodent maintenance diet (10% fat, 30% protein, 60% carbohydrate; 14.2 MJ/kg, Trouw Nutrition, Cheshire, UK). The cafeteria diet comprised 6 daily rotations of 2 palatable food items per day (2 from: tuna, peanut butter, crisps, chocolate biscuits, madera cake, chocolate, luncheon meat, sausages, corned beef, cheese, marzipan). All animal experiments were carried out in accordance with the UK Animals (Scientific Procedures) Act 1986.
(§2) Food intake and body weight were recorded daily while plasma glucose and insulin concentrations were monitored at intervals of 3-6 days. Whole blood for the measurement of glycated hemoglobin was taken on day 60. In addition, plasma samples for measurement of cholesterol, circulating triglycerides, HDL-cholesterol (HDL-C) and LDL-cholesterol (LDL-C) were taken on day 60. […] Mice fasted for 18 hours were used to examine the metabolic response to 15 minutes feeding on day 60. In a separate series, pancreatic tissues were excised at the end of the 60-day treatment period and processed for immunohistochemistry or measurement of insulin following extraction with 5 ml/g of ice-cold acid ethanol (750 ml ethanol, 235 ml water, 15 ml concentrated HCl). Blood samples taken from the cut tip of the tail vein of conscious mice at the times indicated in the Figures were immediately centrifuged using a Beckman microcentrifuge (Beckman instruments, UK) for 30 seconds at 13,000×g. The resulting plasma was then aliquoted into fresh Eppendorf tubes and stored at −20° C. prior to glucose and insulin determinations. Normal control mice from the same genetic background were used for comparative purposes. […] Body weights were recorded daily and blood for determination of glycated hemoglobin was collected at end of study period.
(§3) Plasma glucose was assayed by an automated glucose oxidase procedure (Stevens, J. F., 1971, Clin. Chem. Acta 32:199-201) using a Beckman Glucose Analyzer II (Beckman Instruments, Galway, Ireland). Plasma and pancreatic insulin were assayed by a modified dextran-coated charcoal radioimmunoassay (Flatt, P. R., Bailey, C. J., 1981, Diabetologia 20:573-577). Plasma triglyceride and cholesterol levels were measured using a Hitachi Automatic Analyser 912 (Boehringer Mannheim, Germany). Glycated hemoglobin was determined using a commercially available kit purchased from Chirus Ltd. (Watford, UK).
Results are expressed as mean±SEM. Data were compared using ANOVA, followed by a Student-Newman-Keuls post hoc test. Area under the curve (AUC) analyzes were calculated using the trapezoidal rule with baseline subtraction. P<0.05 was considered to be statistically significant.

[3] = tested on: Swiss TO mice; test: Daily (Pro3)GIP for 90 days in normal (TO) mice fed high fat, cafeteria, high carbohydrate or normal diets; format: in vivo, mouse; conditions: for Glycated Hemoglobin (%): 25 nmol/kg bw/day
Description: as §1, §2, §3
Normal mice were fed the different diets indicated above ad libitum from 4-5 weeks of age. Treated groups of mice received intraperitoneal injection of ProGIP (25 nmoles/kg body weight) each day.

[4] = tested on: normal mice; conditions: once daily 11 days (Irwin 2004); cited from earlier work
[5] = tested on: adult ob/ob mice; conditions: daily 11 days (Gault 2005); cited from earlier work
[6] = normal mice fed high fat or cafeteria diets, 90 days

DPP-IV, sequence (P27487 whole entry, species assumed): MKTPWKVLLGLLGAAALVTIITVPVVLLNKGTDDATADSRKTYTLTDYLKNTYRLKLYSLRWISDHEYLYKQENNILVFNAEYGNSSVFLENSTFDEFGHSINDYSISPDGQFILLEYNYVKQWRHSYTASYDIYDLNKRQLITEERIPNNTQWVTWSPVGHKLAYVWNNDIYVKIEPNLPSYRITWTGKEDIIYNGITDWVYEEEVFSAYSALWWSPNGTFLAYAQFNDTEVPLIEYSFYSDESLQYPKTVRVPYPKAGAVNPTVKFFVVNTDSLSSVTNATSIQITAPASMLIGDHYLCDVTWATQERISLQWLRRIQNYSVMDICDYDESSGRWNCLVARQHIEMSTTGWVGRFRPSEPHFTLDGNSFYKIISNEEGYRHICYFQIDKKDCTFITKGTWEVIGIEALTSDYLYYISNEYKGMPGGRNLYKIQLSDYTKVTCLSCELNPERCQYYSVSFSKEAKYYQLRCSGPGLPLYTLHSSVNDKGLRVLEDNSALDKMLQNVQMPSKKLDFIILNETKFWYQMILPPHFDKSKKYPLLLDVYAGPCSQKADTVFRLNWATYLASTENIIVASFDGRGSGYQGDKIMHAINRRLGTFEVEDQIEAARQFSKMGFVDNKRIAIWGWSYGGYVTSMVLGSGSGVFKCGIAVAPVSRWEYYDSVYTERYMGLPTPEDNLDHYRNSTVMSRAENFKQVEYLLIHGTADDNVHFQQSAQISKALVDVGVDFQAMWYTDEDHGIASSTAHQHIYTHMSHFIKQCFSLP

## YAPGTFISDYSIAMDKIHQQDFVNWLLAQKGKKNDWKHNITQ [(Pro^3)GIP]
[1]; DPP-IV enzyme (5 mU) in buffer, pH 7.8, incubation with DPP-IV, unit not given (time points in hrs), read-out: Estimated Half-Life (converted)
  half-life at 2 μm: > 8 h
[1]; incubation with DPP-IV (5 mU), 37°C, pH 7.8, 0 hrs
  Intact Peptide Remaining (%) 0 hrs.: 100%
[1]; isolated DPP-IV enzyme (5 mU), incubation with DPP-IV (5 mU), 37°C, pH 7.8, 2 hrs, read-out: Intact Peptide Remaining (%) 2 hrs.
  remaining at 2 h, 2 μm: 100%
[1]; isolated DPP-IV enzyme (5 mU), incubation with DPP-IV (5 mU), 37°C, pH 7.8, 4 hrs, read-out: Intact Peptide Remaining (%) 4 hrs.
  remaining at 4 h, 2 μm: 100%
[1]; isolated DPP-IV enzyme (5 mU), incubation with DPP-IV (5 mU), 37°C, pH 7.8, 8 hrs, read-out: Intact Peptide Remaining (%) 8 hrs.
  remaining at 8 h, 2 μm: 100%
[1]; words, up to 8 hours incubation
  resistance to DPP-IV degradation: completely resistant
[2]; 5-7 weeks old ob/ob mice, standard diet, 60 days
  body weight gain: progressive decrease in body weight gain
[2]; 18 h fasted ob/ob mice, 60 days, vs saline
  plasma insulin levels after 15 minute feeding: not significantly different
[2]; 18 h fasted ob/ob mice, 60 days, 15, 30, 60 and 105 min
  plasma glucose responses to 15 minute feeding: significantly lowered
[2]; ob/ob mice, 25 nmol/kg/day i.p., 60 days, vs saline, did not reach significance
  decrease in body weight: ~17%
[2]; ob/ob mice, 25 nmol/kg/day, 60 days, vs saline
  effect on food intake: no effect; also recorded: without changing food intake
[2]; ob/ob mice, 60 days, vs saline
  cholesterol levels: unaltered
  circulating triglyceride concentrations: significantly (P<0.05) reduced
  enhanced insulin sensitivity: 1.5 fold
  lowering of overall plasma glucose response to feeding: 1.7 fold
  lowering of overall plasma glucose response to intraperitoneal glucose load: 1.9 fold
  pancreatic insulin content: significantly (P<0.01) decreased
  pancreatic weight: no effect
  reduced pancreatic insulin content: 1.5 fold
[2]; ob/ob mice, 60 days, vs saline, LDL-C calculated by Friedewald equation
  levels of LDL-C: significantly reduced
[2]; ob/ob mice, 60 days, 0, 15, 30 and 60 min after glucose 18 mmol/kg
  plasma glucose concentrations following intraperitoneal glucose: significantly reduced
[2]; ob/ob mice, 60 days, 15 min after glucose 18 mmol/kg
  plasma insulin concentrations following intraperitoneal glucose: significantly (P<0.05) reduced
[2]; ob/ob mice, 60 days, insulin 50 U/kg i.p.
  hypoglycemic action of insulin (insulin sensitivity): significantly (P<0.05) augmented
[2]; ob/ob mice, 60 days, native GIP 25 nmoles/kg
  overall glycaemic excursion and insulinotropic response to glucose together with native GIP: significant decrease
[2]; ob/ob mice, after 60 days treatment
  glycated hemoglobin: 4.1±0.1%
[2]; ob/ob mice, day 14 to day 60, vs saline
  non-fasting plasma glucose: significantly reduced
[2]; ob/ob mice, day 44, vs saline
  non-fasting plasma insulin: significantly lowered
[3]; Cafeteria diet, 90 days
  Glycated Hemoglobin (%): 4.0 ± 0.32 %
[3]; High Carbohydrate diet, 90 days
  Glycated Hemoglobin (%): 4.3 ± 0.12%
[3]; High Fat diet, 90 days
  Glycated Hemoglobin (%): 4.0 ± 0.21 %
[3]; Normal diet, 90 days
  Glycated Hemoglobin (%): 3.9 ± 0.14%
[3]; high carbohydrate or normal diets
  body weight and glycated hemoglobin (parameters measured): did not affect
[3]; high fat diet, lesser extent cafeteria diet
  body weight gain induced by excessive energy intake: counters body weight gain
[3]; [6]
  decrease in body weight: up to 20%
  decrease in glycated hemoglobin: greater than 1%
[4]
  glucose tolerance and insulin sensitivity: reversible impairment of glucose tolerance associated with decreased insulin sensitivity
[5]
  features of type 2 diabetes: improved many of the characteristic features of type 2 diabetes

Source: patent US20090170762A1, “Treatment of Diabetes Related Obesity” (UUTech Limited, priority 2005, published 2009)
